From patent US20090069302A1 (SMITHKLINE BEECHAM CORPORATION, priority 2006, published 2009)

Target: T1, AXOR109 (Homo sapiens, UniProt Q8TDU6)
T1 construct: expressed in transfected cells; host or cells: melanophore cells, transfected by electroporation
T1 sequence (Q8TDU6 1-330): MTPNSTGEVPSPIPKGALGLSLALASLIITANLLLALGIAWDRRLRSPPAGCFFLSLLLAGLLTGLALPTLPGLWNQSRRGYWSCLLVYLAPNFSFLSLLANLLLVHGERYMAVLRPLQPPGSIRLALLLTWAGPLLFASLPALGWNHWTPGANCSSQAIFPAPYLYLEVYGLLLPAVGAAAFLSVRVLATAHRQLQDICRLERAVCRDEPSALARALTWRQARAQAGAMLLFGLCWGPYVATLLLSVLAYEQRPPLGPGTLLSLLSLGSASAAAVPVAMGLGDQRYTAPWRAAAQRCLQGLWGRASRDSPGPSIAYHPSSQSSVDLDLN
Assay: Human AXOR109/Melanophore Assay
Format: cell-based
Conditions: melanophore assay; for Emax: 1 h; for EC50: AXOR109 transfected melanophores
Procedure: AXOR109 is a Gs-coupled receptor and therefore increases intracellular cAMP leading to melanosome dispersion. Compounds of the present invention were characterized in a melanophore assay as described in Jayawickreme C K, et al., Current Protocols in Pharmacology (2005) 12.9.1-12.9.16. Briefly, melanophore cells are transfected by electroporation with AXOR109 expressing cDNA. Cells are then plated in 384 well clear bottom plates at 8E3 cells per well in 50 μl of conditioned fibroblast media (CFM). Compounds to be tested are serially diluted 3-fold in DMSO and further diluted 1:100 with melanophore assay buffer (MAB)+10 nM Melatonin to yield 11 point concentration response curves. Following 2 hour incubation with MAB+1% DMSO+10 nM Melatonin, initial transmittance is read on a TwisterII/Spectramax plate reader. Compounds are then added to the cells and incubated for 1 hour, and final transmittance is read as before. Results are compared to vehicle (MAB+1% DMSO+10 nM Melatonin) and to a positive control (MAB+1% DMSO+10 nM Melatonin+200 nM alpha-MSH). Data are calculated for each well as follows: 1-(Transmitance-final/Transmitance-initial). Each well result is then normalized to alpha-MSH, the system max control for Gs/Gq coupled receptors using the following equation: (ObjX−Control1)/(Control2−Control1)*100. The percent system max is used to generate the pEC50 using the equation: y=((Vmax*x̂n)/(K̂n+x̂n))+Y2. Acceptable Z-prime values should be >0.4. Compounds of the present invention have a pEC50≧5.0 in the above described assay.

[1] = normalized to alpha-MSH system max

| SMILES | Emax [1] | EC50 | % Max [1] |
| --- | --- | --- | --- |
| COc1cccc(S(=O)(=O)N2C[C@@H](C)N(S(=O)(=O)c3ccc(OC)c(OC)c3)[C@@H](C)C2)c1 [Example 33, 1-{[3,4-bis(methyloxy)phenyl]sulfonyl}-2,6-cis-dimethyl-4-{[3-(methyloxy)phenyl]sulfonyl}piperazine] | 51 to 75% | 1260 to 10000 nM |  |
| COc1ccc(S(=O)(=O)N(CCN(C2CC2)S(=O)(=O)c2ccc(OC)c(OC)c2)C(C)C)cc1OC [Example 89] | 76 to 100% | 126 to 1000 nM |  |
| COc1ccc(S(=O)(=O)N2CCCN(S(=O)(=O)c3ccc(OC)c(OC(F)(F)F)c3)CC2)cc1OC [Example 30, 1-{[3,4-bis(methyloxy)phenyl]sulfonyl}-4-({4-(methyloxy)-3-[(trifluoromethyl)oxy]phenyl}sulfonyl)hexahydro-1H-1,4-diazepine] | 76 to 100% | 1260 to 10000 nM |  |
| COc1ccc(S(=O)(=O)N2C[C@H](C)N(S(=O)(=O)c3ccc4c(c3)OCCO4)C[C@@H]2C)cc1OC [Example 71, (2S,5S)-1-{[3,4-bis(methyloxy)phenyl]sulfonyl}-4-(2,3-dihydro-1,4-benzodioxin-6-ylsulfonyl)-2,5-dimethylpiperazine] | 76 to 100% | 126 to 1000 nM |  |
| CC[C@@H]1CN(S(=O)(=O)c2ccc(OC)c(OC)c2)[C@@H](CC)CN1S(=O)(=O)c1ccc(OC)c(OC)c1 [Example 45, (2R,5S)-1,4-bis{[3,4-bis(methyloxy)phenyl]sulfonyl}-2,5-diethylpiperazine] | 76 to 100% | 1260 to 10000 nM |  |
| COc1ccc(S(=O)(=O)N2C[C@@H](C)N(S(=O)(=O)c3ccc(OC)c(OC(F)(F)F)c3)[C@@H](C)C2)cc1OC [Example 36, 4-{[3,4-bis(methyloxy)phenyl]sulfonyl}-2,6-cis-dimethyl-1-({4-(methyloxy)-3-[(trifluoromethyl)oxy]phenyl}sulfonyl)piperazine] | 51 to 75% | 126 to 1000 nM |  |
| CCC1CN(S(=O)(=O)c2ccc(OC)c(OC)c2)C(C)CN1S(=O)(=O)c1ccc(OC)c(OC)c1 (stereo not drawn) [Example 46, 1,4-bis{[3,4-bis(methyloxy)phenyl]sulfonyl}-2-ethyl-5-methylpiperazine] | 51 to 75% | 1260 to 10000 nM |  |
| CCN(CCN(C1CC1)S(=O)(=O)c1ccc(OC)c(OC)c1)S(=O)(=O)c1ccc(OC)c(OC)c1 [Example 90] | 51 to 75% | 126 to 1000 nM |  |
| COc1ccc(S(=O)(=O)N2C[C@@H](C)N(S(=O)(=O)c3ccc4oc(=O)ccc4c3)[C@@H](C)C2)cc1OC [Example 37, 6-[(4-{[3,4-bis(methyloxy)phenyl]sulfonyl}-2,6-cis-dimethyl-1-piperazinyl)sulfonyl]-2H-chromen-2-one] | 0 to 50% | 1260 to 10000 nM |  |
| COc1ccc(S(=O)(=O)N2CCN(S(=O)(=O)c3ccc(OC)c(OC)c3)C(C)C2)cc1OC (stereo not drawn) [Example 29, 1,4-bis{[3,4-bis(methyloxy)phenyl]sulfonyl}-2-methylpiperazine] | 51 to 75% | 126 to 1000 nM |  |
| COc1ccc(S(=O)(=O)N2C[C@@H](C)N(S(=O)(=O)c3ccc(OC)c(OC)c3)[C@@H](C)C2)cc1OC [Example 54, (2R,6S)-1,4-bis{[3,4-bis(methyloxy)phenyl]sulfonyl}-2,6-dimethylpiperazine] |  | 126 to 1000 nM | * (“*” = 0% to 50%) |
| COc1ccc(S(=O)(=O)N2C[C@@H]3C[C@H]2CN3S(=O)(=O)c2ccc(OC)c(OC)c2)cc1OC [Example 86] | 76 to 100% | 1260 to 10000 nM |  |
| COc1ccc(S(=O)(=O)N2C[C@H](C)N(S(=O)(=O)c3ccc(OS(C)(=O)=O)c(OC)c3)C[C@@H]2C)cc1OC [Example 63, 4-[((2S,5S)-4-{[3,4-bis(methyloxy)phenyl]sulfonyl}-2,5-dimethyl-1-piperazinyl)sulfonyl]-2-(methyloxy)phenyl methanesulfonate] |  | 1260 to 10000 nM |  |
| CCc1cc(S(=O)(=O)N2C[C@H](C)N(S(=O)(=O)c3ccc(OC)c(OC)c3)C[C@@H]2C)ccc1OC [Example 68, (2S,5S)-1-{[3,4-bis(methyloxy)phenyl]sulfonyl}-4-{[3-ethyl-4-(methyloxy)phenyl]sulfonyl}-2,5-dimethylpiperazine] | 76 to 100% | 126 to 1000 nM |  |
| CCN(C1CCCN(S(=O)(=O)c2ccc(OC)c(OC)c2)C1)S(=O)(=O)c1ccc(OC)c(OC)c1 (stereo not drawn) [Example 93, N-(1-{[3,4-bis(methyloxy)phenyl]sulfonyl}-3-piperidinyl)-N-ethyl-3,4-bis(methyloxy)benzenesulfonamide] | 51 to 75% | 1260 to 10000 nM |  |
| COc1ccc(S(=O)(=O)NCC(C)N(C)S(=O)(=O)c2ccc(OC)c(OC)c2)cc1OC (stereo not drawn) [Example 66, N-[2-({[3,4-bis(methyloxy)phenyl]sulfonyl}amino)-1-methylethyl]-N-methyl-3,4-bis(methyloxy)benzenesulfonamide] | 51 to 75% | 1260 to 10000 nM |  |
| COc1ccc(S(=O)(=O)N2CCN(S(=O)(=O)c3c(C)cccc3Cl)CC2)cc1OC [Example 5, 1-{[3,4-bis(methyloxy)phenyl]sulfonyl}-4-[(2-chloro-6-methylphenyl)sulfonyl]piperazine] | 76 to 100% | 1260 to 10000 nM |  |
| CCc1cc(S(=O)(=O)N2CCN(S(=O)(=O)c3ccc(OC)c(OC)c3)CC2)ccc1OC [Example 64, 1-{[3,4-bis(methyloxy)phenyl]sulfonyl}-4-{[3-ethyl-4-(methyloxy)phenyl]sulfonyl}piperazine] | 76 to 100% | 126 to 1000 nM |  |
| COc1ccc(S(=O)(=O)N2CCN(S(=O)(=O)c3ccc4c(c3)OCCO4)CC2)cc1OC [Example 78, 1-{[3,4-bis(methyloxy)phenyl]sulfonyl}-4-(2,3-dihydro-1,4-benzodioxin-6-ylsulfonyl)piperazine] | 51 to 75% | 1260 to 10000 nM |  |
| COc1ccc(S(=O)(=O)N2C[C@@H](C)N(S(=O)(=O)c3ccc(OC)c(OC)c3)[C@H](C)C2)cc1OC [Example 17, (2R,6R)-1,4-bis{[3,4-bis(methyloxy)phenyl]sulfonyl}-2,6-dimethylpiperazine] | 0 to 50% | 126 to 1000 nM |  |
| CCc1cc(S(=O)(=O)N2CCCN(S(=O)(=O)c3ccc(OC)c(OC)c3)CC2)ccc1OC [Example 41, 1-{[3,4-bis(methyloxy)phenyl]sulfonyl}-4-{[3-ethyl-4-(methyloxy)phenyl]sulfonyl}hexahydro-1H-1,4-diazepine] | 51 to 75% | 126 to 1000 nM |  |
| COc1ccc(S(=O)(=O)N2CC(C)(C)N(S(=O)(=O)c3ccc(OC)c(OC)c3)CC2=O)cc1OC [Example 48, 1,4-bis{[3,4-bis(methyloxy)phenyl]sulfonyl}-5,5-dimethyl-2-piperazinone] | 76 to 100% | 1260 to 10000 nM |  |
| COc1ccc(S(=O)(=O)N2CCN(S(=O)(=O)c3ccc(C)cc3OC)CC2)cc1OC [Example 3, 1-{[3,4-bis(methyloxy)phenyl]sulfonyl}-4-{[4-methyl-2-(methyloxy)phenyl]sulfonyl}piperazine] | 51 to 75% | 1260 to 10000 nM |  |
| COc1ccc(S(=O)(=O)N2C[C@H](C)N(S(=O)(=O)c3ccc(OC)c(OC)c3)C[C@@H]2C)cc1 [Example 72, (2S,5S)-1-{[3,4-bis(methyloxy)phenyl]sulfonyl}-2,5-dimethyl-4-{[4-(methyloxy)phenyl]sulfonyl}piperazine] | > 100% | 126 to 1000 nM |  |
| COc1ccc(S(=O)(=O)N2CCN(S(=O)(=O)c3ccc(OC)c(OC)c3)[C@@H](C)C2)cc1OC [Example 19, (2S)-1,4-bis{[3,4-bis(methyloxy)phenyl]sulfonyl}-2-methylpiperazine] | 76 to 100% | 1260 to 10000 nM |  |
| COc1ccc(S(=O)(=O)N(C)CCN(C)S(=O)(=O)c2ccc(OC)c(OC)c2)cc1 [Example 15, N-methyl-N-[2-(methyl{[4-(methyloxy)phenyl]sulfonyl}amino)ethyl]-3,4-bis(methyloxy)benzenesulfonamide] | 76 to 100% | 126 to 1000 nM |  |
| COc1ccc(S(=O)(=O)N2CCN(S(=O)(=O)c3ccc(OC)c(OC(F)(F)F)c3)CC2)cc1OC [Example 91] | 76 to 100% | 126 to 1000 nM |  |
| CCCN(C[C@H]1CCCN1S(=O)(=O)c1ccc(OC)c(OC)c1)S(=O)(=O)c1ccc(OC)c(OC)c1 [Example 99, N-[((2R)-1-{[3,4-bis(methyloxy)phenyl]sulfonyl}-2-pyrrolidinyl)methyl]-3,4-bis(methyloxy)-N-propylbenzenesulfonamide] | 76 to 100% | < 126 nM |  |
| CC=CCN(CCN(C)S(=O)(=O)c1ccc(OC)c(OC)c1)S(=O)(=O)c1ccc(OC)c(OC)c1 [Example 75, N-{2-[{[3,4-bis(methyloxy)phenyl]sulfonyl}(2-buten-1-yl)amino]ethyl}-N-methyl-3,4-bis(methyloxy)benzenesulfonamide] | 76 to 100% | 126 to 1000 nM |  |
